Values quoted from earlier work, collected in patent US6365551B1, “Highly concentrated glyphosate herbicidal compositions” (Monsanto Technology LLC, priority 1990, dated 2002).

Conditions: glyphosate in acid form

For O=C(O)CNCP(=O)(O)O [glyphosate, N-phosphonomethylglycine], the water solubility is given as “about 1.2%”.
